Here are results for one compound from EP4722228A1, “NEW COMPOUND TARGETING MUSK AND USE THEREOF” (The University of Tokyo, priority 2023, dated 2024).

Bridge positions count the residues as written; N and C are the ends. Square brackets hold non-standard residues; d marks the D form. Peptide text beside a SMILES is read from it. I, II: the chains in the order shown. * marks the point of attachment. Palmitoyl = CCCCCCCCCCCCCCCC(=O)*; PEG3 = NCCOCCOCCOCCC(=O)O; Dap = NC[C@H](N)C(=O)O

The target in one assay is T1, mouse MuSK (Mus musculus, UniProt Q61006).
T1 construct: made in house
T1 sequence (Q61006 22-494 limits assumed): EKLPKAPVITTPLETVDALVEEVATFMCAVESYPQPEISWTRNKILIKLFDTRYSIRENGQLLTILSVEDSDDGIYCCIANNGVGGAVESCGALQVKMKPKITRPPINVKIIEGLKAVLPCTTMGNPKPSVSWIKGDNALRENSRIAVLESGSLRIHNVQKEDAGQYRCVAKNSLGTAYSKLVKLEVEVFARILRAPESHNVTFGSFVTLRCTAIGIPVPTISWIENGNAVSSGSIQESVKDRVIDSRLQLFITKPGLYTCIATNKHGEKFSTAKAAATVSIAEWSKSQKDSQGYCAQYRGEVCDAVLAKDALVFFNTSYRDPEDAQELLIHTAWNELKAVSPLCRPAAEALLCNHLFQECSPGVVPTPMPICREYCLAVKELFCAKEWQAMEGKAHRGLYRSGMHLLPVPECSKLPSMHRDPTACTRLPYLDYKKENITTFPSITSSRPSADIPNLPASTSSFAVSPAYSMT
The assay can be described thus: SPR binding activity test to mouse MuSK (Biacore). The following applies: Table 5. As for the experimental part:
The strength of binding between MuSK and the cyclic peptides was evaluated by quantitatively measuring the binding kinetics (binding affinity (dissociation constant) KD) of the cyclic peptides to MuSK immobilized on a sensor chip via an Fc tag, using surface plasmon resonance (SPR).
According to the standard immobilization protocol provided by the manufacturer, Fc-tagged human/mouse/rat MuSK was immobilized on a Protein G chip or a Protein A chip (Cytiva). A running buffer for the monomer/dimer peptides contained 0.010 M phosphate, 0.14 M NaCl, 0.0027 M KCl, 0.05% (v/v) Tween 20, and 0.1% (v/v) DMSO. A running buffer for the monomer/dimer U-bodies contained 0.010 M phosphate, 0.14 M NaCl, 0.0027 M KCl, and 0.05% (v/v) Tween 20. A series of concentrations of each monomer peptide, dimer peptide, monomer U-body, and dimer U-body was injected as analytes. A 1:1 binding fitting analysis was applied using Biacore evaluation software, and ka, kd, and KD values were determined.
Fc-tagged human MuSK was prepared according to the procedure described in Example 1(1). In addition, Fc-tagged mouse MuSK was used by expressing a nucleotide sequence encoding the Fc-tagged mouse MuSK extracellular domain (SEQ ID NO: 34). […]
The affinity of the U-bodies and their complexes obtained as described above for MuSK of human, rat, and mouse was evaluated (binding activity test). […]
In general terms: In SPR one partner is held on a chip, and binding of the other changes the refractive index at the surface.

The test system of assay [1] is rat PTMG model using anti-acetylcholine receptor monoclonal antibody (mAb35). Kind of assay: Wire-hang Test (Hanging Wire Test) in rat PTMG model. The class given is in vivo. The following applies: approx. 30 hours after antibody. On the procedure:
(§1) 5-week-old female rats (n=20, LEW/CrlCrlj, 4 weeks old when carried in, Jackson Laboratory Japan) were divided into four groups (Group A, Group B, Group C, and Group D) using body weight measurement results as indexes. Vehicle was administered to Group A, and the test compound MuSK7-pal dissolved in vehicle was administered intravenously to each of Group B (3 mg/kg), Group C (2 mg/kg), and Group D (1 mg/kg) (Day 0). Two hours after intravenous administration, an anti-nicotinic acetylcholine receptor monoclonal antibody (mAb35, National Hospital Organization Nagasaki Kawatana Medical Center) dissolved in PBS (pH 7.4) as a drug for inducing the pathology of myasthenia gravis was administered intraperitoneally to all animals at 200 µg/rat (Day 0). The vehicle, which was a solvent of the compound, was phosphate-buffered saline (PBS) at pH 7.4 containing 20% hydroxypropyl-β-cyclodextrin and 0.02% polysorbate 80 (the same applies to Example 3(2)).
Approximately 30 hours after antibody administration, the muscle strength of the rats was measured using a lid (made of wire mesh) of a lidded plastic cage (Clean 200-TPX cage; CL-0108-2, CLEA Japan, Inc.). Specifically, the rats were left for 15 minutes or longer, and after confirming that they were in a resting state, they were placed on the cage lid. Next, the cage lid was lightly shaken about three times so that the rats would grasp the cage lid, and the cage lid was turned upside down. The inverted lid was held at a height (about 60 cm from the floor), which was high enough to prevent the rats from getting down easily but low enough not to injure them if they fell. The latency until the rats fell from the cage lid was measured for up to 120 seconds.
as §1, with “(n=24,” for “(n=20,”, “(0.5” for “(3”, “(0.25” for “(2”, “(0.1” for “(1”, “0).” for “0). The vehicle, which was a solvent of the compound, was phosphate-buffered saline (PBS) at pH 7.4 containing 20% hydroxypropyl-β-cyclodextrin and 0.02% polysorbate 80 (the same applies to Example 3(2)).”
The Wire-hang Test was performed approximately 30 hours after antibody administration. The implementation procedure was the same as that in (1) B above.
5-week-old female rats (LEW/CrlCrlj, 4 weeks old when carried in, Jackson Laboratory Japan) were divided into three groups (Group A, Group B, and Group C) using body weight measurement results as indexes. The test compound (tetramer of Ub012 (EAAAK)3) dissolved in vehicle was administered intravenously to Group A (5 mg/kg) (n=5), the test compound (tetramer of Ub012(ΔGG) (EAAAK)3) dissolved in vehicle was administered intravenously to Group B (5 mg/kg) (n=5), and vehicle was administered intravenously to Group C (n=5), respectively (Day 0). Two hours after intravenous administration, an anti-nicotinic acetylcholine receptor monoclonal antibody (mAb35, National Hospital Organization Nagasaki Kawatana Medical Center) dissolved in PBS (pH 7.4) as a drug for inducing the pathology of myasthenia gravis was administered intraperitoneally to all animals at 200 µg/rat (Day 0).
The Wire-hang Test was performed approximately 30 hours after antibody administration. The implementation procedure was the same as that in Example 3(1) B.

As usually defined, the Kd is the constant that tells how readily two partners part at equilibrium. A lower Kd goes with a tighter complex. Turning to `CCCCCCCCCCCCCCCC(=O)NCCCC[C@H](NC(=O)[C@H](CNC(=O)CCOCCOCCOCCNC(=O)CNC(=O)[C@@H]1CSCC(=O)N[C@H](Cc2ccc(O)cc2)C(=O)N2CCC[C@H]2C(=O)N[C@@H](CO)C(=O)N[C@@H](Cc2ccc(O)cc2)C(=O)N[C@@H](Cc2c[nH]cn2)C(=O)N[C@@H]([C@@H](C)O)C(=O)N[C@@H](CC(N)=O)C(=O)N[C@@H](C(C)C)C(=O)N[C@@H](C(C)C)C(=O)N[C@@H](C)C(=O)N[C@@H](CO)C(=O)N[C@@H](CC(C)C)C(=O)N[C@@H](CCCCN)C(=O)N[C@@H](CCCNC(=N)N)C(=O)N1)NC(=O)CCOCCOCCOCCNC(=O)CNC(=O)[C@@H]1CSCC(=O)N[C@H](Cc2ccc(O)cc2)C(=O)N2CCC[C@H]2C(=O)N[C@@H](CO)C(=O)N[C@@H](Cc2ccc(O)cc2)C(=O)N[C@@H](Cc2c[nH]cn2)C(=O)N[C@@H]([C@@H](C)O)C(=O)N[C@@H](CC(N)=O)C(=O)N[C@@H](C(C)C)C(=O)N[C@@H](C(C)C)C(=O)N[C@@H](C)C(=O)N[C@@H](CO)C(=O)N[C@@H](CC(C)C)C(=O)N[C@@H](CCCCN)C(=O)N[C@@H](CCCNC(=N)N)C(=O)N1)C(N)=O` [MuSK7-pal] (I: {CH2CO}-[dY]PSYHTNVVASLKRCG[PEG3][Dap]K(Palmitoyl)-NH2 / II: {CH2CO}-[dY]PSYHTNVVASLKRCG[PEG3]; amide I:18-II:C; thioether I:N-I:15, II:N-II:15), at mouse MuSK, the Kd is 8.8 nM. The “mean latency to fall” value in assay [1] (0.1 mg/kg intravenously (Group D, Example 3(2))) came out at 25.3 s; in assay [1] (0.25 mg/kg intravenously (Group C, Example 3(2))), 32.3 s; in assay [1] (0.5 mg/kg intravenously (Group B, Example 3(2))) it was 11.3 s; in assay [1] (1 mg/kg intravenously (Group D, Example 3(1)), max 120 seconds), 69.6 s; in assay [1] (2 mg/kg intravenously (Group C, Example 3(1)), max 120 seconds), 29.2 s; in assay [1] (3 mg/kg intravenously (Group B, Example 3(1)), max 120 seconds) it was 17.6 s.
